Source: patent publication US6413537B1, “Nystatin formulation having reduced toxicity” (Wisconsin Alumni Research Foundation, priority 2000, dated 2002)
In brackets after ≈: the same amount, converted by molar mass. Read-outs that look alike come from different tables or passages of the source.

Tests used:
[1] = Solubility measurement of freeze-dried nystatin formulations (NF) in distilled water; format: physicochemical; details: vortex mixed 5 min, 0.45 μm filtered, absorption at 307 nm
Description: An excess amount of each NF formulation from Example 1 was placed into 0.5 mL of distilled water, and mixed vigorously for 5 min with a vortex mixer. After filtering the slurry with a 0.45 μm syringe filter, the filtrate was diluted with dimethylformamide (DMF) for analysis. The amount of nystatin in each NF composition was calculated by absorption spectroscopy at 307 nm.

[2] = Critical aggregation concentration (CAC) of nystatin by light scattering; format: physicochemical
Description: Nystatin (16 mg) was dissolved into 0.3 mL of dimethylsulfoxide (DMSO) under light protection, and was added into 15 mL of various aqueous Pluronic F127® solutions ranging from 0.1%-2.0%, making a 1100 μM nystatin solution. Each solution was serially diluted with the corresponding Pluronic F127® solution until a 3.8 μM nystatin concentration was obtained. After incubation at 37° C. for 30 min, each solution was subjected to light scattering using fluorimeter with fixed excitation wavelength of 450 nm. Band widths for excitation and emission were set at 3 nm and 1.5 nm, respectively. […] The intersection point of two linear lines was defined as the critical aggregation concentration (CAC) where self-aggregation of nystatin molecules begins, leading to an abrupt increase of intensity of scattered light.

[3] = tested on: Saccharomyces cerevisiae, ATCC 4921; assay: Minimal inhibitory concentration (MIC) in YPD broth; format: cell-based; details: 30° C., 24 hr, full inhibition by optical density at 600 nm
Description: NF samples were dissolved into DMSO and diluted with Bacto® YPD broth medium (10 g of Bacto® YPD in 200 mL of distilled water, and sterilized at 121° C.-124° C.), to give a nystatin level of 8 μg/mL. Nystatin levels were varied by serial dilution with broth medium to a level of 0.1 μg/mL. An aliquot (800 μL) of each nystatin sample was put into a microcentrifuge tube. 50 μL of the inoculum, containing 5×10^3 cfu/mL of Saccharomyces cerevisiae, ATCC 4921, in sterile distilled water, was added to each tube to give a total volume of 850 μL per tube. The tubes were incubated at 30° C. for 24 hr. A solvent control, Pluronic F127® control, and medium control were performed simultaneously to check the growth inhibiting activities of DMSO and Pluronic F127® as well as the sterility of the broth medium. […] The MIC for the nystatin formulations in accordance with the present invention was determined to be 3 μg/mL. The MIC of nystatin alone for Saccharomyces cerevisiae is about 3 μg/mL.

Saccharomyces cerevisiae = assay: Minimal fungicidal concentration (MFC); format: cell-based; details: 2 hrs contact at 37° C., no colony on YPD agar plate after 24 hr at 30° C.
Description: For measurement of minimal fungicidal concentration (MFC), the same procedure as the MIC measurement was employed up to the incubation step. Tubes containing Saccharomyces cerevisiae were placed in an incubator at 37° C. for 2 hrs., so that the cells might be killed. After 2 hrs. contact with the sample, the surviving cells were precipitated on the bottom of the tube by centrifugation (12000 g, 20 sec), and the supernatant decanted. […] All experiments were repeated three times. The MFC for the compositions in accordance with the present invention was determined to be 3 μg/mL.

[4] = tested on: erythrocytes (red blood cells)
[5] = Monomerizing (light scattering) effect of various surfactants on nystatin; format: physicochemical; details: nystatin kept constant at 200 μM; FIG. 7
Description: Nystatin formulations were prepared with various surfactants similar to the method of Example 1. The concentration of drug was kept constant at 200 μM. The intensity of the scattered light was measured using a fluorimeter with a fixed excitation wavelength of […].

Molecule	Solubility [1]	Solubility ([1]; listed as pure nystatin)	CAC ([2]; distilled water alone)	CAC ([2]; distilled water containing 0.1% Pluronic F127, 37° C. 30 min)	CAC ([2]; distilled water containing 0.5% Pluronic F127, 37° C. 30 min)	CAC ([2]; distilled water containing 1.0% Pluronic F127, 37° C. 30 min)	CAC ([2]; distilled water containing 1.5% Pluronic F127, 37° C. 30 min)	CAC ([2]; distilled water containing 2.0% Pluronic F127, 37° C. 30 min)	minimal inhibitory concentration (MIC) [3]	minimal fungicidal concentration (MFC) (Saccharomyces cerevisiae)	concentration of nystatin causing 50% hemolysis ([4]; PBS pH 7.0 containing 0.1% Pluronic F127, FIG. 4)	concentration of nystatin causing 50% hemolysis ([4]; PBS pH 7.0 containing 2% Pluronic F127, FIG. 4)	50% hemolysis inducing level of Nys ([4]; Table 1, erythrocytes in isotonic PBS, 37° C., 30 min)	concentration of nystatin causing 50% hemolysis ([4]; isotonic PBS, FIG. 3)	surfactant level showing deaggregating activity (decrease of light scattering intensity) [5]	concentration of surfactant alone causing 50% hemolysis [4]
C[C@@H]1[C@H](O)[C@@H](C)/C=C/C=C/CC/C=C/C=C/C=C/C=C/C(O[C@H]2O[C@H](C)[C@@H](O)[C@H](N)[C@@H]2O)CC2O[C@](O)(CC(O)C(O)CCC(O)CC(O)CC(O)CC(=O)O[C@H]1C)CC(O)C2C(=O)O (stereo partly shown) [pure Nys, Nystatin]	540 µg/mL (≈ 583 µM)	500 µg/mL (≈ 540 µM)	52.8 µM	50.1 µM	108.0 µM	134.2 µM	154.3 µM	217.9 µM	about 3 μg/mL	12 µg/mL (≈ 13 µM)	~120 µg/mL	~270 µg/mL	60 µg/mL	about 55 μg/mL	–	–
sorbitan mono-9-octadecanoate [Tween 80®]	–	–	–	–	–	–	–	–	–	–	–	–	–	–	about 100 μM	less than 50 μg/mL
